Legend:
aspirin-induced ulcer = assay: rat experiment on aspirin-induced ulcer, oral (experiment b); type: in vivo, male Wister rats
Procedure: (b) Experimental procedures:
Male Wister rats weighing 120-140 g were made to fast for 24 hours, and compounds to be tested were administered orally. After 5 hours, the rats were killed by a blow. The stomach was excised and observed for the presence of ulcer.
The size of ulcer was measured by ulcer index (ulcer length×width mm^2).

[1] = tested on: PCA reaction (type I allergy); assay: PCA test (type I allergy); type: in vivo, male Wister rats
Procedure: (a) PCA--Test (type I allergy)
Male Wister rats weighing […] were shaved at the abdomen. After 24 hours, 0.05 ml of serum diluted with saline (Blood samples were diluted to 1/32 and 1/64; The blood samples were collected from rats 3 weeks after administration of pertussis vaccine and egg albumin.) was injected intradermally at the abdomen. After 48 hours, compounds to be tested were administered intraperitoneally. Two hours thereafter, 0.5 ml./100 g of a solution of antigen and pigment (a solution of 0.4% egg albumin and 0.5% Pontamine sky blue) was administered. After 45 minutes, the rats were decapitated and bled, and the diameter of the pigment-leaking site under the skin was measured to obtain the area.

[2] = tested on: ulcers induced by acetic acid; assay: experiments with rats on ulcers induced by acetic acid (chronic gastric ulcers); type: in vivo; details: for ulcer value (major axis × minor axis): p.o., 14 days
Procedure: (c) Experiments with rats on ulcers induced by acetic acid
Chronic gastric ulcers were induced by penetrating 100% acetic acid serosally into gastric wall for 60 sec. using a small cup (6 mm in diameter, 5 mm in height).
From the next day, compounds to be tested were administered orally twice a day (morning and evening) for 14 days. Autopsies were carried out 15 days after the administrations.

[3] = target: T1, Δ^4 -5α-reductase for aldosterone in rat liver (Rattus norvegicus, UniProt P24008); assay: inhibitory action on Δ^4-5α-reductase for aldosterone; type: biochemical
T1 construct: The pellet was appropriately diluted with a solution of 0.25 M sucrose-1 mM EDTA to use as a 5α-reductase solution; from tissue; host or cells: rat liver, 105,000 g pellet
T1 sequence (P24008 1-259): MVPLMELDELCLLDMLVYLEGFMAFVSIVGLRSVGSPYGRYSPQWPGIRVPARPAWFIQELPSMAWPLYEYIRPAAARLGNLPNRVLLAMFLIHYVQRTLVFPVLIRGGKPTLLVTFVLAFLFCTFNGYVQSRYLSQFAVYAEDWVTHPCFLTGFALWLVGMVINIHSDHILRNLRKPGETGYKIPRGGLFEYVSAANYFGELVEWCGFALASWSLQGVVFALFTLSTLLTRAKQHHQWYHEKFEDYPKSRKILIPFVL
Procedure: In vitro experimental results regarding effects of glycyrrhetinic acid (II) and its modified compounds (III), (IV), and (I) on Δ^4 -5α and 5β-reductase for aldosterone in rat liver will be shown below.
Assay for activity of Δ^4 -5α and 5β-reductase
(1) Preparation of enzyme solutions
Rat livers were perfused with saline and excised to prepare a 25% or 50% homogenate with a solution of 0.25 M sucrose and 1 mM EDTA. The homogenate was spun at 10,000 g for 20 minutes to separate supernatant, which was centrifuged again at 105,000 g to obtain Δ^4 -5β-reductase as the supernatant. The pellet was appropriately diluted with a solution of 0.25 M sucrose-1 mM EDTA to use as a 5α-reductase solution.
(2) Conditions for incubation and assay
1 Aldosterone . . . 0.173 μM/0.05 ml ethanol solution
2 Glycyrrhetinic acid or its modified compounds . . . 0.173 μM/0.05 ml ethanol solution Control . . . 0.05 ml ethanol solution
5α-reductase solution 0.1 ml
5β-reductase solution 0.1 ml or 0.2 ml
5 Phosphate buffer (0.1 M, pH 7.2) 1 ml
The components 1 , 2 , 3 , 4 , 5 , and 6 mentioned above were mixed to bring the total volume up to 2.5 ml. The mixture was incubated at 37° C. for 20 minutes. Before the incubation, however, 1 ml aliquot was removed from 2.5 ml of the mixture mentioned above and extracted with 5 ml of methylene dichloride. After the incubation, the remaining 1.5 ml was extracted with 5 ml of methylene dichloride. The optical density of the two methylene dichloride solutions prepared before and after the incubation was measured by a spectrophotometer (Hitachi) at 240 mμ. Inhibition % of Δ^4 -5α and 5β-reductase activity was calculated from the difference in the optical density.

acute toxicity test = type: in vivo, male mice (ddY); details: mouse, in vivo
Procedure: (§1) To male mice (ddY) weighing 24 g-26 g, 10 mice in one group, compounds to be tested (suspended in Tween 80) in various doses of the ratio (1, 2) were administered (orally and intraperitoneally), and LD50 was determined by the Litchfield-Wilcoxon method.

mice = assay: acute toxicity test; type: in vivo, male mice (ddY); details: oral and intraperitoneal
Procedure: as §1

## CC1(C)[C@@H](O)CC[C@]2(C)[C@H]3CC=C4[C@@H]5C[C@@](C)(CO)CC[C@]5(C)CC[C@@]4(C)[C@]3(C)CC[C@@H]12 [I, olean-12-ene-3β, 30-diol]
aspirin-induced ulcer; 200 mg/kg p.o., after 5 hours, control 0
  ulcer index (ulcer length×width): 0 mm^2
aspirin-induced ulcer; rat, in vivo
  effect on ulcer, experiment (b) (in words): did not produce ulcer and inhibited the development of ulcer induced by aspirin
[1]; serum 1/32, 100 mg/kg intraperitoneally, control 35.2 ± 5.3
  area: 22.3 ± 9.1 mm^2
[1]; serum 1/64, 100 mg/kg intraperitoneally, control 16.4 ± 2.8
  area: 6.8 ± 4.6 mm^2
[1]; serum 1/64, 200 mg/kg intraperitoneally, control 16.4 ± 2.8
  area: 6.3 ± 4.8 mm^2
[1]; serum diluted to 1/64
  PCA activity compared with (II) (in words): a little stronger than that of (II)
[2]; Experiment 1, 200 mg/kg (half dose twice/day), control 12.0 ± 2.3
  ulcer value (major axis × minor axis): 10.1 ± 3.4
[2]; Experiment 1, 400 mg/kg (half dose twice/day), control 12.0 ± 2.3
  ulcer value (major axis × minor axis): 7.5 ± 0.7
[2]; Experiment 2, 200 mg/kg (half dose twice/day), control 8.9 ± 1.7
  ulcer value (major axis × minor axis): 6.7 ± 2.2
[2]; Experiment 2, 400 mg/kg (half dose twice/day), control 8.9 ± 1.7
  ulcer value (major axis × minor axis): 5.2 ± 1.2
[2]; Total, 200 mg/kg (half dose twice/day), control 10.4 ± 1.4
  ulcer value (major axis × minor axis): 8.4 ± 2.0
[2]; Total, 400 mg/kg (half dose twice/day), control 10.4 ± 1.4, * p < 0.05
  ulcer value (major axis × minor axis): 6.2 ± 0.8
[2]; dose of 200 mg
  inhibitory effect on acetic acid ulcer (in words): showed an inhibitory effect to some extent
[2]; dose of 400 mg
  healing rate: more than 40%
  inhibitory effect on acetic acid ulcer (in words): clearly showed inhibitory effects
[3]; pH 7.2, read-out: 5α-reductase (inhibition %)
  inhibition at 0.173 µM: -7.1%
[3]; summary in words, liver reductase
  effect upon Δ^4 -5α-5β-reductase (in words), 5α: no inhibitory activity
Acute toxicity test; ip, intraperitoneal administration
  LD50: > 4000 mg/kg
Acute toxicity test; oral administration
  LD50: > 5000 mg/kg
mice
  acute toxicity (in words): very low toxicity

— patent publication US4374284A, “Antiulcer, antiinflammatory, and antiallergic agent comprising as the main ingredient olean-12-ene-3β, 30-diol which is devoid of side effects of glycyrrhetinic acid and a new process for preparation of olean-12-ene-3β, 30-diol” (Minophagen Pharmaceutical Company, priority 1980, dated 1983)
